Data on 12 compounds can be found in patent US7579353B2, “Pyridinone derivatives against malaria” (Glaxo Group Limited, priority 2005, dated 2009).

The structures appear in SMILES notation. Values after ≈ are worked out from the molar mass of the structure shown. Like-named read-outs stand apart in the source and are kept apart here.

Series [1] has as its system Plasmodium falciparum. The experiment in a line: In vitro anti-malarial activity against Plasmodium falciparum, IC50 assay / [3H]-hypoxanthine incorporation assay. Type of series: cell-based. The conditions noted are these: Erythrocyte, parasitized red blood cells, 48 hours.
Series [2] can be described thus: Compound solubility determination (gross and equilibrium solubility; FaSSIF, FeSSIF, pH 7.4 PBS, pH 1.0 0.1N HCl, pH 4.5 sodium citrate). The format is physicochemical. The conditions noted are these: thermodynamic from solid. As to the method: Compound Solubility Determination
An amount of 3 mg solid compound with LC-MS purity ≧95% was required. This amount was split between 3 different glass vials (1.8 ml volume each), placing 1 mg compound into each one.
Organic solvents of HPLC grade were used. Ultra pure water (Milli-Q grade) was used. Buffers were prepared with ultra pure water and filtered using 0.45μ cameo filters. The compositions of each solvent employed in this assay are described below (part III).
2. Determination of Equilibrium Solubility (Assuming Chemical Stability in the Desired Solvent is not a Problem).
For each of the three vial samples prepared as described above, in which the amount of compound was totally dissolved, the following procedure was subsequently carried out: • a) A small amount (approx. 0.1 mg) of additional solid compound was added to the vial to maintain an excess of the compound in the mixture in the form of undissolved solid. • b) The samples were magnetically stirred for 24 hr. If required, additional solid compound (0.1 mg) was added to maintain excess of it and then the samples were stirred again. • c) Then the samples were filtered (Millipore Milex filters nylon 0.2 um) and three aliquots were taken (one from each of the three vials) and analysed by LC-MS. • d) The pH of the final solution in each sample was measured with a pH-meter (WTW pH330i and a pH-electrode Sentix 41).
3. LC-MS Assay for Analytical Quantification
All filtered aliquots were analysed by LC-MS. The analysis was carried out with a Luna 5 μC18 (2) column 4.6×150 mm, using a HP1100 HPLC instrument interfaced with a Waters ZMD-2000 MS spectrometer. The concentration of the final sample as prepared above was calculated from that of a reference calibration curve obtained from serial dilutions of a 2 mM solution of the compound under investigation in DMSO (Aldrich cat. ref.: 27685-5) stock solution.
The analysis of all LC-MS data was performed with MassLynx 3.4 software. Statistical and graphic analysis of data was performed using Microsoft Excel. The concentration (uM) and solubility (ug/ml) for each compound was calculated using the peak areas from the sample and those from the calibration curve.
A) FaSSIF is a solvent which simulates the Fasted State of the Intestinal Fluid. (FaSSIF: Fasted State Simulated Intestinal Fluid).
B) FeSSIF is a solvent which simulates the Fed State of the Intestinal Fluid. (FeSSIF: Fed State Simulated Intestinal Fluid).
C) Solubility at pH 7.4 was determined in phosphate buffered saline (PBS) (Fluka cat. ref: 79383)
D) Solubility at pH 1.0 was determined in 0.1N HCl solution (Scharlau AL0744010C)
E) Solubility at pH 4.5 was determined in sodium citrate 0.5M solution. (Aldrich 25, 127-5)

Where [3] appears, read: 0.1N HCl solution, simulated gastric fluid, pH 1 (HCl), read-out: Solubility at pH 1 (HCl).
The mark [4] stands for this setting: FaSSIF (fasted state simulated intestinal fluid), fassif, read-out: Solubility in FaSSIF.
Setting [5] is: phosphate buffered saline (PBS), aqueous buffer, pH 7.4 (PBS), read-out: Solubility at pH 7.4 (PBS).
The mark [6] stands for this setting: sodium citrate 0.5M solution, aqueous buffer, pH 4.5 (Na citrate), read-out: Solubility at pH 4.5 (Na citrate).
Setting [7] is: FeSSIF (fed state simulated intestinal fluid), fessif, read-out: Solubility in FeSSIF.

As usually defined, the IC50 is the concentration needed to halve the response being measured. What is called solubility is how much of the substance goes into solution per volume. As for `Cc1[nH]c(C)c(-c2ccc(-c3ccc(F)cc3)nc2)c(=O)c1Cl` [Example 36, 5-Chloro-6′-(4-fluorophenyl)-2,6-dimethyl-3,3′-bipyridin-4(1H)-one], the IC50 in series [1] was less than 0.125 µg/mL. The solubility at 24 h in series [2] (setting [3]) is not below 50 µg/mL; in series [2] (setting [4]) it was 1 to 5 µg/mL (≈ 3.04 to 15.2 µM); in series [2] (setting [5]), 1 to 5 µg/mL (≈ 3.04 to 15.2 µM); in series [2] (setting [6]), 1 to 5 µg/mL (≈ 3.04 to 15.2 µM).
The compound `Cc1[nH]c(C)c(-c2ccc(-c3ccccc3F)nc2)c(=O)c1Cl` [Example 37, 5-Chloro-6′-(2-fluorophenyl)-2,6-dimethyl-3,3′-bipyridin-4(1H)-one] yielded an IC50 in series [1] of less than 0.125 µg/mL. For the same compound, the solubility at 24 h in series [2] (setting [3]) was not below 50 µg/mL; in series [2] (setting [4]), 10 to 50 µg/mL (≈ 30.4 to 152 µM); in series [2] (setting [5]), 10 to 50 µg/mL (≈ 30.4 to 152 µM); in series [2] (setting [6]), 10 to 50 µg/mL (≈ 30.4 to 152 µM).
`Cc1[nH]c(C)c(-c2ccc(CCc3cccc(C(F)(F)F)c3)nc2)c(=O)c1Cl` [Example 44, 5-Chloro-2,6-dimethyl-6′-{2-[3-(trifluoromethyl)phenyl]ethyl}-3,3′-bipyridin-4(1H)-one]: the IC50 in series [1] was less than 0.125 µg/mL. The solubility at 24 h in series [2] (setting [3]) is not below 50 µg/mL; in series [2] (setting [4]) it was 10 to 50 µg/mL (≈ 24.6 to 123 µM); in series [2] (setting [5]) it was 1 to 5 µg/mL (≈ 2.46 to 12.3 µM); in series [2] (setting [6]) it was 10 to 50 µg/mL (≈ 24.6 to 123 µM).
The compound `Cc1[nH]c(C)c(-c2ccc(CCc3ccc(C(F)(F)F)cc3)nc2)c(=O)c1Cl` [Example 45, 5-Chloro-2,6-dimethyl-6′-{2-[4-(trifluoromethyl)phenyl]ethyl}-3,3′-bipyridin-4(1H)-one] gave an IC50 in series [1] of less than 0.125 µg/mL. In addition, the solubility at 24 h was not below 50 µg/mL in series [2] (setting [3]), 10 to 50 µg/mL (≈ 24.6 to 123 µM) in series [2] (setting [4]), 5 to 10 µg/mL (≈ 12.3 to 24.6 µM) in series [2] (setting [5]) and 10 to 50 µg/mL (≈ 24.6 to 123 µM) in series [2] (setting [6]).
The compound `CCCCCCCc1ccc(-c2c(C)[nH]c(C)c(Cl)c2=O)cn1.Cl` [Example 48, 5-Chloro-6′-(n-heptyl)-2,6-dimethyl-3,3′-bipyridin-4(1H)-one] returned an IC50 in series [1] of less than 0.125 µg/mL. Besides, the solubility at 24 h in series [2] (setting [3]) was not below 50 µg/mL; in series [2] (setting [4]), 10 to 50 µg/mL; in series [2] (setting [5]), 1 to 5 µg/mL; in series [2] (setting [6]), not below 50 µg/mL.
As for `Cc1[nH]c(C)c(-c2ccc(Oc3ccc(OC(F)(F)F)cc3)nc2)c(=O)c1Cl` [Example 49, 5-Chloro-2,6-dimethyl-6′-({4-[(trifluoromethyl)oxy]phenyl}oxy)-3,3′-bipyridin-4(1H)-one], in series [1], the IC50 was less than 0.125 µg/mL. For the same compound, the solubility at 24 h was 5 to 10 µg/mL (≈ 12.2 to 24.3 µM) in series [2] (setting [3]); less than 1 µg/mL in series [2] (setting [4]); less than 1 µg/mL in series [2] (setting [7]); less than 1 µg/mL in series [2] (setting [5]); less than 1 µg/mL in series [2] (setting [6]).
`CCCCCCCCCc1cnc(-c2c(C)[nH]c(C)c(Cl)c2=O)nc1` [Example 50, 3-Chloro-2,6-dimethyl-5-(5-nonyl-2-pyrimidinyl)-4(1H)-pyridinone]: the IC50 in series [1] was less than 0.125 µg/mL. The solubility at 24 h in series [2] (aqueous buffer, pH 4.5 (Na citrate), read-out: Solubility at pH 4.5 (Na citrate)) was less than 1 µg/mL; in series [2] (aqueous buffer, pH 7.4 (PBS), read-out: Solubility at pH 7.4 (PBS)) it was less than 1 µg/mL; in series [2] (fassif, read-out: Solubility in FaSSIF), less than 1 µg/mL; in series [2] (fessif, read-out: Solubility in FeSSIF), 1 to 5 µg/mL (≈ 2.76 to 13.8 µM); in series [2] (simulated gastric fluid, pH 1 (HCl), read-out: Solubility at pH 1 (HCl)) it was 5 to 10 µg/mL (≈ 13.8 to 27.6 µM).
As for `Cc1[nH]c(C)c(-c2cnc(-c3ccc(OC(F)(F)F)cc3)nc2)c(=O)c1Cl` [Example 51, 3-Chloro-2,6-dimethyl-5-{2-[4-(trifluoromethyloxy)phenyl]-5-pyrimidinyl}-4(1H)-pyridinone], the IC50 in series [1] was less than 0.125 µg/mL. The solubility at 24 h in series [2] (setting [3]) was 1 to 5 µg/mL (≈ 2.53 to 12.6 µM); in series [2] (setting [4]), 1 to 5 µg/mL (≈ 2.53 to 12.6 µM); in series [2] (setting [7]) it was 5 to 10 µg/mL (≈ 12.6 to 25.3 µM); in series [2] (setting [5]) it was less than 1 µg/mL; in series [2] (setting [6]) it was less than 1 µg/mL.
Regarding `Cc1[nH]c(C)c(-c2ccc(-c3ccc4c(c3)OCO4)nc2)c(=O)c1Br` [Example 53], in series [1], the IC50 is less than 0.125 µg/mL. Besides, the solubility at 24 h in series [2] (setting [3]) was not below 50 µg/mL; in series [2] (setting [4]), 5 to 10 µg/mL (≈ 12.5 to 25 µM); in series [2] (setting [5]) it was 1 to 5 µg/mL (≈ 2.5 to 12.5 µM); in series [2] (setting [6]), 5 to 10 µg/mL (≈ 12.5 to 25 µM).
The compound `Cc1[nH]c(C)c(-c2ccc(-c3cc(C(F)(F)F)ccc3F)nc2)c(=O)c1Cl` [Example 56, 5-chloro-6′-[2-fluoro-5-(trifluoromethyl)phenyl]-2,6-dimethyl-3,3′-bipyridin-4(1H)-one] had an IC50 in series [1] of less than 0.125 µg/mL. For the same compound, the solubility at 24 h in series [2] (setting [3]) is not below 50 µg/mL; in series [2] (setting [4]), 1 to 5 µg/mL (≈ 2.52 to 12.6 µM); in series [2] (setting [7]), 10 to 50 µg/mL (≈ 25.2 to 126 µM); in series [2] (setting [5]), less than 1 µg/mL; in series [2] (setting [6]) it was less than 1 µg/mL.
Regarding `Cc1[nH]c(C)c(-c2ccc(-c3cc(C(F)(F)F)ccc3Cl)nc2)c(=O)c1Cl` [Example 57, 5-chloro-6′-[2-chloro-5-(trifluoromethyl)phenyl]-2,6-dimethyl-3,3′-bipyridin-4(1H)-one], the IC50 in series [1] is less than 0.125 µg/mL. Further, the solubility at 24 h was not below 50 µg/mL in series [2] (setting [3]); 5 to 10 µg/mL (≈ 12.1 to 24.2 µM) in series [2] (setting [4]); 10 to 50 µg/mL (≈ 24.2 to 121 µM) in series [2] (setting [7]); less than 1 µg/mL in series [2] (setting [5]); less than 1 µg/mL in series [2] (setting [6]).
`Cc1[nH]c(C)c(-c2ccc(-c3ccc(C(F)(F)F)cc3F)nc2)c(=O)c1Cl` [Example 58, 5-chloro-6′-[2-fluoro-4-(trifluoromethyl)phenyl]-2,6-dimethyl-3,3′-bipyridin-4(1H)-one] had an IC50 in series [1] of less than 0.125 µg/mL. The solubility at 24 h in series [2] (setting [3]) was 10 to 50 µg/mL (≈ 25.2 to 126 µM); in series [2] (setting [4]) it was less than 1 µg/mL; in series [2] (setting [7]), 1 to 5 µg/mL (≈ 2.52 to 12.6 µM); in series [2] (setting [5]), less than 1 µg/mL; in series [2] (setting [6]) it was less than 1 µg/mL.
